Data as given in patent US7183383B2, “Uses of collagen IV” (The University of Arkansas for Medical Sciences, priority 2002, dated 2007).

Legend:
Format in all cases: cell-based, rabbit
[1] = tested on: renal proximal tubular cells; test: Cell density (monolayer protein content) in DCVC-injured RPTC
Method: Rabbit renal proximal tubules were isolated using the iron oxide perfusion method and grown in 35-mm tissue culture dishes or 48-well cell culture clusters under improved conditions as previously described (35, 36). The cell culture medium was a 1:1 mixture of DMEM/Ham's F-12 (without D-glucose, phenol red, or sodium pyruvate) supplemented with 15 mM HEPES buffer, 2.5 mM L-glutamine, 1 μM pyridoxine HCl, 15 mM sodium bicarbonate, and 6 mM lactate. Hydrocortisone (50 nM), selenium (5 ng/ml), human transferrin (5 μg/ml), bovine insulin (10 nM), and L-ascorbic acid-2-phosphate (50 μM or 500 μM) were added to fresh culture medium immediately prior to daily media change. L-Ascorbic acid-2-phosphate (AscP) was used due to the fact that L-ascorbic acid is unstable in culture media. AscP is stable in culture media for ≧7 days at 37° C. and, after intracellular dephosphorylation, has the same effect on cultured cells as L-ascorbic acid (13).
(§1) Confluent monolayers of renal proximal tubular cells (day 6 after seeding) were exposed to 200 μM S-(1,2-dichlorovinyl)-L-cysteine (dissolved in water) for 1.75 hours followed by toxicant removal and addition of fresh culture media. This method produces approximately 50% cell death and loss 24 hours after the exposure. On days 1, 4, and 6 following S-(1,2-dichlorovinyl)-L-cysteine exposure, the ability of the remaining renal proximal tubular cells to regenerate and repair physiological function was monitored as described below. In some experiments, immediately after S-(1,2-dichlorovinyl)-L-cysteine exposure and after daily media change through day 6 after injury, collagen I (0, 5, 15, or 50 μg/ml), collagen IV (0, 5, 15, or 50 μg/ml), laminin (50 μg/ml), or cellular fibronectin (50 μg/ml) was added to the culture media of uninjured and S-(1,2-dichlorovinyl)-L-cysteine-injured renal proximal tubular cells grown in physiological concentrations of AscP. Exogenous collagens I and IV used in this study were triple helical and contained only α1 and α2 chains in conformations similar to those found in the renal basement membrane (3, 25). Laminin was a mixture of biologically active laminin chains found in most epithelial tissues (8, 50) and cellular fibronectin was composed of functional dimers (51).
Measurement of monolayer protein content over time was used to estimate cell density. On days 1, 4, and 6 after sublethal S-(1,2-dichlorovinyl)-L-cysteine injury, renal proximal tubular cell monolayers were washed with PBS and solubilized in Triton buffer (0.05% Triton X-100, 100 mM Tris-Base, 150 mM NaCl, pH 7.5). Samples were sonicated and protein concentrations determined using the method of Lowry (26) or the bicinchoninic acid microassay according to the manufacturer's instructions (Pierce, Rockford, Ill.).

[2] = tested on: renal proximal tubular cells; test: Basal oxygen consumption (QO2), a measure of mitochondrial function; conditions: for repair of basal QO2: day 6 after DCVC injury
Method: as §1
On days 1, 4, and 6 after sublethal S-(1,2-dichlorovinyl)L-cysteine injury, renal proximal tubular cells bathed in 37° C. culture medium were gently detached from culture dishes with a rubber policeman and transferred to a 37° C. oxygen consumption (QO2) chamber. Basal renal proximal tubular cells QO2 was measured polarographically using a Clark-type electrode as described previously (36).

[3] = tested on: Na^+/K^+-ATPase activity in renal proximal tubular cells; test: Na^+/K^+-ATPase activity (ouabain-sensitive ATPase)
Method: as §1
On days 1 and 6 after sublethal S-(1,2-dichlorovinyl)-L-cysteine injury, total ATPase activity was measured using a modification of a previously described procedure (44). Briefly, renal proximal tubular cells cultured in 48-well cell culture clusters were scraped and incubated in dissociation buffer (5 mM HEPES (pH 7.4), 25 mM imidazole, 1% BSA, 0.065% sodium dodecyl sulfate (SDS)) for 10 min. at room temperature and placed on ice. The dissociated renal proximal tubular cells were then diluted 5-fold with additional dissociation buffer minus SDS. Aliquots of dissociated renal proximal tubular cells were combined with fresh ATPase assay buffer (2.54 mM MgCl2, 100 mM NaCl, 10 mM KCl, 5 mM HEPES, 10 U/ml lactate dehydrogenase, 7 U/ml pyruvate kinase, 2.54 mM Na2ATP, 2.54 mM phospho(enol)pyruvate, and 0.5 mM β-NADH). ATPase activity was measured under linear conditions spectrophotometrically as the oxidation of β-NADH to NAD^+ at 37° C. in the absence or presence of ouabain (0.1 mM) at a wavelength of 340 nm. Na^+/K^+-ATPase activity was calculated as total ATPase activity minus ouabain-insensitive ATPase activity.
Confluent monolayers of renal proximal tubular cells (day 6 after seeding) were exposed to 200 μM S-(1,2-dichlorovinyl)-L-cysteine (dissolved in water) for 1.75 hours followed by toxicant removal and addition of fresh culture media. This method produces approximately 50% cell death and loss 24 hours after the exposure. In some experiments, exogenous collagen IV (50 μg/ml), collagen I (50 μg/ml), or function-stimulating antibodies to collagen-binding integrin subunits α2 or β1 (5 μg/ml) was added daily to the culture media of S-(1,2-dichlorovinyl)-L-cysteine-injured renal proximal tubular cells cultured in the absence of pharmacological concentrations of L-ascorbic acid-2-phosphate. Function-stimulating antibodies to collagen-binding integrin α1 are not commercially available at this time. On days 1 and 6 following S-(1,2-dichlorovinyl)-L-cysteine exposure, active Na^+ transport or Na^+/K^+-ATPase activity, and collagen-binding integrin expression and/or localization in the remaining sublethally injured renal proximal tubular cells was determined as described below.
Total ATPase activity was measured as described above. […]

[4] = tested on: collagen-binding integrin subunits α1, α2, and β1; test: Subcellular localization of CBIs by confocal microscopy; conditions: for CBIs on the apical membrane of injured RPTC: by day 6 after DCVC; for CBIs on the apical membrane of injured RPTC / basal localization of CBI subunits α1, α2, and β1 in injured RPTC: pharmacological AscP or exogenous collagen IV
Method: Collagen-binding integrin localization was determined using confocal microscopy of renal proximal tubular cell monolayers stained with monoclonal antibodies to integrin subunits α1, α2, and β1. Renal proximal tubular cell monolayers were washed 3 times with PBS and fixed with 10% buffered formalin (4% formaldehyde) for 20 minutes at room temperature. After 3 washes with PBS, monolayers were permeabilized in PTB buffer (PBS+0.3% Triton X-100+0.1% BSA) for 10 minutes at room temperature. Monolayers were washed 3 times with 0.1% BSA in PBS and incubated with 8% BSA in PBS for 30 minutes at room temperature. BSA (1%) in PBS containing 5 μg/ml of specific integrin antibodies or non-specific IgG was added to renal proximal tubular cell monolayers and incubated overnight a t 4° C. with moderate shaking. Following 3 washes with PTB buffer, monolayers were incubated for 2 hours in the dark at room temperature with 1% BSA in PBS containing a 1:100 dilution of a FITC-conjugated goat anti-mouse IgG. Monolayers were washed 3 times with PTB, and glass coverslips were applied after the addition of 2–3 drops of mounting media. Confocal microscopy was performed using a Zeiss confocal laser scanning microscope (Model 410, Carl Zeiss, Inc., Thornwood, N.Y.). Basal and apical membrane locations were determined visually in the Z-plane using light field microscopy. Two to three photomicrographs per monolayer at the basal and apical membranes were then scanned with an omnichrome laser filtered at 488 nm to detect FITC.

[5] = one day after DCVC (200 μM), both 50 μM and 500 μM AscP
[6] = day 1 after DCVC injury, in presence of exogenous protein
[7] = uninjured RPTC, days 1 or 6, exogenous protein

O=C1O[C@H]([C@@H](O)CO)C(O)=C1OP(=O)(O)O [L-ascorbic acid-2-phosphate, L-Ascorbic acid-2-phosphate]
monolayer protein content ([1]; 4 days after DCVC, 50 μM or 500 μM AscP): remained at day 1 levels | monolayer protein content greater than that of DCVC-treated RPTC grown in 50 μM AscP ([1]; 6 days after DCVC, 500 μM AscP): 34% | cell death and loss (decrease in monolayer protein content) ([1]; day 1 after DCVC, RPTC cultured in 500 μM AscP): 55% | monolayer protein content, untreated RPTC, 50 μM vs 500 μM ([1]; uninjured RPTC, any time point): no significant differences | QO2 ([2]; day 4 after DCVC, 50 μM or 500 μM AscP): remained at day 1 levels | QO2 higher than in RPTC grown in 50 μM AscP ([2]; day 6 after DCVC, 500 μM AscP): 49% | QO2 relative to controls ([2]; day 6 after DCVC, 500 μM AscP): equal to that of controls | basal QO2, untreated RPTC, 50 μM vs 500 μM ([2]; uninjured RPTC): equivalent at all time points | Na^+/K^+-ATPase activity higher than in injured RPTC in physiological AscP ([3]; day 6 after DCVC, 500 μM AscP): approximately 150% | Na^+/K^+-ATPase activity, untreated RPTC, 50 μM vs 500 μM ([3]; uninjured RPTC): equivalent at all time points | CBIs on the apical membrane of injured RPTC [4]: complete disappearance | basal localization of CBI subunits α1, α2, and β1 in injured RPTC ([4]; day 6 after DCVC): return to control levels

N[C@@H](CSC(Cl)=CCl)C(=O)O [S-(1,2-dichlorovinyl)-L-cysteine]
cell death and loss ([1]; 200 μM for 1.75 hours, 24 hours after the exposure): approximately 50% | decrease in monolayer protein content compared to control ([1]; day 1 after DCVC (200 μM), RPTC cultured in 50 μM AscP): 56% | decrease in QO2 [2, 5]: approximately 50% | decrease in Na^+/K^+-ATPase activity [3, 5]: ~65% | apical membrane distribution of CBI subunits α1, α2, and β1 ([4]; day 1 after DCVC injury): partially redistributed to the apical membrane | CBI α1, α2, and β1 staining at the basal membrane ([4]; day 1 following DCVC): decreased compared to controls | apical membrane distribution of CBIs ([4]; day 6 after DCVC injury): continued to exhibit CBI is distributed to the apical membrane | basal localization of CBI subunits α1, α2, and β1 ([4]; day 6 after DCVC, absence of pharmacological AscP or collagen IV): still decreased compared to sub-confluent controls

collagen IV: Human placenta collagen IV (Sigma); triple helical, containing only α1 and α2 chains
decrease in monolayer cell density [1, 6]: approximately 50% | monolayer protein content in injured RPTC ([1]; day 1 or day 6 after DCVC, 50 μg/ml): no change | cell density as percent of that of uninjured RPTC ([1]; day 6 after DCVC injury, in presence of exogenous protein): approximately 50% | monolayer cell density in untreated RPTC [1, 7]: no effect | decrease in basal QO2 [2, 6]: approximately 50% | repair of basal QO2 ([2]; 50 μg/ml): complete repair | repair of basal QO2 ([2]; 5, 15, 50 μg/ml): recovered basal QO2 | basal QO2 in untreated RPTC [2, 7]: no effect | Na^+/K^+-ATPase activity in injured RPTC ([3]; day 6 after DCVC injury, 50 μg/ml): significantly increased | CBIs on the apical membrane of injured RPTC [4]: complete disappearance | basal localization of CBI subunits α1, α2, and β1 in injured RPTC ([4]; day 6 after DCVC): return to control levels
